Reference: patent US9695155B2, “Herbicidal substituted pyrimidinyloxy benzene compounds” (E. I. DU PONT DE NEMOURS AND COMPANY, priority 2013, dated 2017)

Experiments:
bromegrass, downy = assay: Test D preemergence; type: in vivo, Bromus tectorum; settings: Bromus tectorum, pre-emergence, scale 0-100, read-out: Plant response rating, Bromegrass, Downy
Method in brief: (§1)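 Values are 0–100 visual control ratings (0 none, 100 complete) given 7–21 days after application. Soil for preemergence was silt loam; postemergence plants stood 2–18 cm tall.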

field poppy = assay: Test D preemergence; type: in vivo, Papaver rhoeas; settings: Papaver rhoeas, pre-emergence, scale 0-100, read-out: Plant response rating, Field Poppy
Method in brief: as §1

Italian ryegrass = assay: Test D preemergence; type: in vivo, Lolium multiflorum; settings: Lolium multiflorum, pre-emergence
Method in brief: as §1

lambsquarters = assay: Test D preemergence; type: in vivo, Chenopodium album; settings: Chenopodium album, pre-emergence, scale 0-100, read-out: Plant response rating, Lambsquarters
Method in brief: as §1

pigweed = assay: Test D preemergence; type: in vivo, Amaranthus retroflexus; settings: Amaranthus retroflexus, pre-emergence
Method in brief: as §1

chamomile = assay: Test D preemergence; type: in vivo, Matricaria inodora; settings: Tripleurospermum inodorum, pre-emergence, scale 0-100, read-out: Plant response rating, Chamomile
Method in brief: as §1

spring barley = assay: Test D preemergence; type: in vivo, Hordeum vulgare; settings: Hordeum vulgare, pre-emergence, scale 0-100, read-out: Plant response rating, Barley, Spring
Method in brief: as §1

windgrass = assay: Test D preemergence; type: in vivo, Apera spica-venti; settings: Apera spica-venti, pre-emergence
Method in brief: as §1

blackgrass = assay: Test D postemergence; type: in vivo, Alopecurus myosuroides; settings: Alopecurus myosuroides, post-emergence, Postemergence, scale 0 to 100 (0 no effect, 100 complete control), read-out: Plant response rating, Blackgrass
Method in brief: as §1

wild oat = assay: Test D postemergence; type: in vivo, Avena fatua; settings: Avena fatua, post-emergence, scale 0 to 100 (0 no effect, 100 complete control), read-out: Plant response rating, Oat, Wild
Method in brief: as §1

wild poinsettia = assay: Test E postemergence; type: in vivo, Euphorbia heterophylla; settings: Euphorbia heterophylla, post-emergence; Postemergence, 250 g ai/ha, scale 0 to 100; read-out: Plant response rating, Poinsettia, Wild
Method in brief: (§2)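 Test chemicals formulated in a non-phytotoxic solvent mixture containing a surfactant were applied preemergence to seeds in silt loam soil or postemergence to plants at the 1- to 4-leaf stage in potting mix. After 14 to 21 days in a greenhouse, injury was visually rated against controls on a 0-100 scale (0 = no effect, 100 = complete control).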

barnyardgrass = assay: Test E postemergence; type: in vivo, Echinochloa crus-galli; settings: Echinochloa crus-galli, post-emergence, read-out: Plant response rating, Barnyardgrass
Method in brief: as §2

sandbur = assay: Test E postemergence; type: in vivo, Cenchrus echinatus; settings: Cenchrus echinatus, post-emergence, read-out: Plant response rating, Sandbur
Method in brief: as §2

[1] = Postemergence, 31 g ai/ha, scale 0 to 100
[2] = Postemergence, 62 g ai/ha, scale 0 to 100
[3] = Postemergence, 125 g ai/ha, scale 0 to 100
[4] = Postemergence, 250 g ai/ha, scale 0 to 100
[5] = postemergence, 16 g ai/ha, scale 0 to 100, 0 no effect, 100 complete control

N#Cc1cccc(Oc2ncc(Cl)cn2)c1-n1cc(C(F)(F)F)cn1 [Compound 58, 3-[(5-chloro-2-pyrimidinyl)oxy]-2-[4-(trifluoromethyl)-1H-pyrazol-1-yl]benzonitrile]
pest or weed control at 31 g/ha (bromegrass, downy; 31 g ai/ha): 10%
pest or weed control at 62 g/ha (bromegrass, downy; 62 g ai/ha): 15%
pest or weed control at 125 g/ha (bromegrass, downy; 125 g ai/ha): 35%
pest or weed control at 250 g/ha (bromegrass, downy; 250 g ai/ha): 75%
pest or weed control at 31 g/ha (field poppy; 31 g ai/ha): 95%
pest or weed control at 62 g/ha (field poppy; 62 g ai/ha): 100%
pest or weed control at 125 g/ha (field poppy; 125 g ai/ha): 100%
pest or weed control at 250 g/ha (field poppy; 250 g ai/ha): 100%
pest or weed control at 31 g/ha (Italian ryegrass; 31 g ai/ha, scale 0 (no effect) to 100 (complete control), read-out: Plant response rating, Ryegrass, Italian): 10%
pest or weed control at 62 g/ha (Italian ryegrass; 62 g ai/ha, scale 0-100, read-out: Plant response rating, Ryegrass, Italian): 35%
pest or weed control at 125 g/ha (Italian ryegrass; 125 g ai/ha, scale 0-100, read-out: Plant response rating, Ryegrass, Italian): 100%
pest or weed control at 250 g/ha (Italian ryegrass; 250 g ai/ha, scale 0-100, read-out: Plant response rating, Ryegrass, Italian): 100%
pest or weed control at 31 g/ha (lambsquarters; 31 g ai/ha): 100%
pest or weed control at 62 g/ha (lambsquarters; 62 g ai/ha): 100%
pest or weed control at 125 g/ha (lambsquarters; 125 g ai/ha): 100%
pest or weed control at 250 g/ha (lambsquarters; 250 g ai/ha): 100%
pest or weed control at 31 g/ha (pigweed; 31 g ai/ha, scale 0 (no effect) to 100 (complete control), read-out: Plant response rating, Pigweed): 100%
pest or weed control at 62 g/ha (pigweed; 62 g ai/ha, scale 0-100, read-out: Plant response rating, Pigweed): 100%
pest or weed control at 125 g/ha (pigweed; 125 g ai/ha, scale 0-100, read-out: Plant response rating, Pigweed): 100%
pest or weed control at 250 g/ha (pigweed; 250 g ai/ha, scale 0-100, read-out: Plant response rating, Pigweed): 100%
pest or weed control at 31 g/ha (chamomile; 31 g ai/ha): 30%
pest or weed control at 62 g/ha (chamomile; 62 g ai/ha): 50%
pest or weed control at 125 g/ha (chamomile; 125 g ai/ha): 80%
pest or weed control at 250 g/ha (chamomile; 250 g ai/ha): 100%
plant injury at 31 g/ha (spring barley; 31 g ai/ha): 10%
plant injury at 62 g/ha (spring barley; 62 g ai/ha): 50%
plant injury at 125 g/ha (spring barley; 125 g ai/ha): 85%
plant injury at 250 g/ha (spring barley; 250 g ai/ha): 100%
pest or weed control at 31 g/ha (windgrass; 31 g ai/ha, scale 0 (no effect) to 100 (complete control), read-out: Plant response rating, Windgrass): 100%
pest or weed control at 62 g/ha (windgrass; 62 g ai/ha, scale 0-100, read-out: Plant response rating, Windgrass): 100%
pest or weed control at 125 g/ha (windgrass; 125 g ai/ha, scale 0-100, read-out: Plant response rating, Windgrass): 100%
pest or weed control at 250 g/ha (windgrass; 250 g ai/ha, scale 0-100, read-out: Plant response rating, Windgrass): 100%
pest or weed control at 62 g/ha (blackgrass; 62 g ai/ha): 45%
pest or weed control at 31 g/ha (blackgrass; 31 g ai/ha): 20%
pest or weed control at 125 g/ha (blackgrass; 125 g ai/ha): 70%
pest or weed control at 250 g/ha (blackgrass; 250 g ai/ha): 90%
pest or weed control at 31 g/ha (wild oat; 31 g ai/ha): 30%
pest or weed control at 62 g/ha (wild oat; 62 g ai/ha): 35%
pest or weed control at 125 g/ha (wild oat; 125 g ai/ha): 35%
pest or weed control at 250 g/ha (wild oat; 250 g ai/ha): 55%
pest or weed control at 250 g/ha (wild poinsettia): 90%
pest or weed control at 31 g/ha (barnyardgrass; [1]): 5%
pest or weed control at 62 g/ha (barnyardgrass; [2]): 20%
pest or weed control at 125 g/ha (barnyardgrass; [3]): 30%
pest or weed control at 250 g/ha (barnyardgrass; [4]): 70%
pest or weed control at 16 g/ha (barnyardgrass; [5]): 0%
pest or weed control at 31 g/ha (sandbur; [1]): 10%
pest or weed control at 62 g/ha (sandbur; [2]): 10%
pest or weed control at 125 g/ha (sandbur; [3]): 20%
pest or weed control at 250 g/ha (sandbur; [4]): 55%
pest or weed control at 16 g/ha (sandbur; [5]): 0%
